Read-outs that look alike come from different tables or passages of the source. Non-standard residues stand in square brackets, D forms with d. Residues, ends and D or L forms follow the SMILES beside them. No end group written: not given here. *: point of attachment. NMeF = CN[C@@H](Cc1ccccc1)C(=O)O; X1 = O=C(Cc1ccc(O)cc1)*
B1: CCK: unrelated neuropeptide (peptide, UniProt P06307 21-115, looked up)
Cholecystokinin: QPVPPADPAGSGLQRAEEAPRRQLRVSQRTDGESRAHLGALLARYIQQARKAPSGRMSIVKNLQNLDPSHRISDRDYMGWMDFGRRSAEEYEYPS
modifications: Cholecystokinin
notes: unrelated neuropeptide

Key:
NPFF1 (SNORF2) = biological target: T1, NPFF1 (SNORF2) (Rattus norvegicus, UniProt Q9EP86); test: Voltage-clamp electrophysiology, Xenopus oocytes injected with SNORF2 (NPFF1) and chimeric Gαq/z RNA; type: cell-based; details: for activation of oocytes injected with SNORF2 synthetic RNA: concentration not given; for inward current response: 1 μM, oocytes with SNORF2 + Gαq/z, holding potential −80 mV
T1 construct: linearized plasmids or PCR products containing the complete coding region of the genes; expressed in transfected cells; host or cells: Xenopus laevis oocytes injected with synthetic RNA (T7 transcripts)
T1 sequence (Q9EP86 whole entry): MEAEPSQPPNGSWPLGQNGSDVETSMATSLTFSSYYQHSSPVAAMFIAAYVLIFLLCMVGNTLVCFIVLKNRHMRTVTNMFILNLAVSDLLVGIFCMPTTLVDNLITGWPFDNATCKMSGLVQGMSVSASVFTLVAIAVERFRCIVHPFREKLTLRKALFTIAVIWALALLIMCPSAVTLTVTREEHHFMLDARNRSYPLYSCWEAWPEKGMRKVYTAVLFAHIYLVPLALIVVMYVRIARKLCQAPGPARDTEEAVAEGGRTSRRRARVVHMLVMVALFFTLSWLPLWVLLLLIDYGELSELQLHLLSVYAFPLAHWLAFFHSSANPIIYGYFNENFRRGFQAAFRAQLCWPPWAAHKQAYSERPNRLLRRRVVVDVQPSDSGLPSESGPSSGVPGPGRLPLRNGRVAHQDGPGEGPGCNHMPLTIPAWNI
Procedure: Oocytes were harvested from Xenopus laevis and injected with mRNA transcripts as previously described (Quick and Lester, 1994; Smith et al., 1997). […] Three to eight hours prior to recording, oocytes were injected with 500 pg Gαq/z mRNA in order to observe coupling to Ca^++ activated Cl^− currents. Dual electrode voltage clamp (Axon Instruments Inc.) was performed using 3 M KCl-filled glass microelectrodes having resistances of 1-2 Mohm. Unless otherwise specified, oocytes were voltage clamped at a holding potential of −80 mV. During recordings, oocytes were bathed in continuously flowing (1-3 ml/min) medium containing 96 mM NaCl, 2 mM KCl, 1.8 mM CaCl2, 1 mM MgCl2, and 5 mM HEPES, pH 7.5 (ND96). Drugs were applied either by local perfusion from a […] glass capillary tube fixed at a distance of 0.5 mm from the oocyte, or by switching from a series of gravity fed perfusion lines.
Heterologous expression of GPCRs in Xenopus oocytes has been widely used to determine the identity of signaling pathways activated by agonist stimulation (Gundersen et al., 1983; Takahashi et al., 1987). Activation of the phospholipase C (PLC) pathway is assayed by applying test compound in ND96 solution to oocytes previously injected with mRNA for the mammalian receptor and observing inward currents at a holding potential of −80 mV. The appearance of currents that reverse at −25 mV and display other properties of the Ca^++-activated Cl^− (chloride) channel is indicative of mammalian receptor-activation of PLC and release of IP3 and intracellular Ca^++.

[1] = biological target: rat spinal cord membrane receptor; test: [125I]D-Tyr-NPFF radioligand binding, rat spinal cord membranes; details: competition of [125I]D-Tyr-NPFF binding; * = differs from NPFF1
Description: The binding profile of rat NPFF1 was compared to that of rat spinal cord membranes. […] (See * Table 2).

rat NPFF1 receptor = rat NPFF1 receptor (Rattus norvegicus, UniProt Q9EP86); test: [125I]D-Tyr-NPFF radioligand binding, membranes of COS-7 cells transiently expressing cloned rat NPFF1; parameters: expressed in transfected cells; host or cells: COS-7 (transient)
Chain of rat NPFF1 receptor (Q9EP86 whole entry): as above
Procedure: Transfected cells from culture flasks are scraped into 5 ml of 20 mM Tris-HCl, 5 mM EDTA, pH 7.5, and lysed by sonication. The cell lysates are centrifuged at 1000 rpm for 5 min. at 4° C., and the supernatant is centrifuged at 30,000×g for 20 min. at 4° C. […] Optimal membrane suspension dilutions, defined as the protein concentration required to bind less than 10% of the added radioligand, […], unlabeled compounds, and binding buffer to a final volume of 250 μl. In equilibrium saturation binding assays membrane preparations are incubated in the presence of increasing concentrations of [^3H]-labeled compound. […] Competition assay: 50 pM radioligand, 10-12 points. Binding reaction mixtures are incubated for 2 hr at 25° C., and the reaction stopped by filtration through a double layer of GF filters treated with 0.1% polyethyleneimine, using a cell harvester. Wash buffer: 50 mM Tris-HCl, 0.1% BSA. Radioactivity may be measured by scintillation counting and data are analyzed by a computerized non-linear regression program. Non-specific binding is defined as the amount of radioactivity remaining after incubation of membrane protein in the presence of 1 μM final concentration […]. Protein concentration may be measured by the Bradford method using Bio-Rad Reagent, with bovine serum albumin as a standard.
Cos-7 cells transiently expressing the gene encoding the novel rat NPFF1 receptor were used for pharmacological evaluation.

[2] = competition of [125I]D-Tyr-NPFF binding, COS-7 membranes
[3] = competition of [125I]D-Tyr-NPFF binding, COS-7 membranes, read-out: pKi for cloned rat NPFF1 receptor binding in COS-7 cells, MEAN (converted)

Row | Molecule | pKi for rat spinal cord membrane receptor binding, MEAN [1] | Ki (rat NPFF1 receptor; [3]) | also measured
1 | NCCc1c[nH]c2ccc(O)cc12 [5-HT] | – | – | activation of oocytes injected with SNORF2 synthetic RNA (NPFF1 (SNORF2)): failed to activate
2 | CC(C)C[C@@H](NC(=O)[C@H](N)Cc1ccc(O)cc1)C(=O)N[C@@H](Cc1ccccc1)C(=O)N[C@@H](CCC(N)=O)C(=O)N1CCC[C@H]1C(=O)N[C@@H](CCC(N)=O)C(=O)N[C@@H](CCCNC(=N)N)C(=O)N[C@@H](Cc1ccccc1)C(N)=O [(2D)Y8Fa] (H-[dY][dL]FQPQRF-NH2; N-terminus assumed) | *9.212 | – | pKi for cloned rat NPFF1 receptor binding in COS-7 cells, MEAN (rat NPFF1 receptor; [2]): 8.33
3 | CC(C)C[C@@H](NC(=O)[C@H](N)Cc1ccc(O)cc1)C(=O)N(C)[C@@H](Cc1ccccc1)C(=O)N[C@@H](CCC(N)=O)C(=O)N1CCC[C@H]1C(=O)N[C@@H](CCC(N)=O)C(=O)N[C@@H](CCCNC(=N)N)C(=O)N[C@@H](Cc1ccccc1)C(N)=O [(2DME)Y8Fa] (H-[dY][dL][NMeF]QPQRF-NH2; N-terminus assumed) | 9.57 | – | pKi for cloned rat NPFF1 receptor binding in COS-7 cells, MEAN (rat NPFF1 receptor; [2]): 9.2
4 | CC(C)C[C@@H](NC(=O)[C@H](N)Cc1ccc(O)cc1)C(=O)N[C@H](Cc1ccccc1)C(=O)N[C@@H](CCC(N)=O)C(=O)N1CCC[C@H]1C(=O)N[C@@H](CCC(N)=O)C(=O)N[C@@H](CCCNC(=N)N)C(=O)N[C@@H](Cc1ccccc1)C(N)=O [(3D)Y8Fa] (H-[dY][dL][dF]QPQRF-NH2; N-terminus assumed) | 9.123 | – | –
5 | CSCC[C@H](NC(=O)[C@H](Cc1ccc(OS(=O)(=O)O)cc1)NC(=O)[C@@H](N)CC(=O)O)C(=O)NCC(=O)N[C@@H](Cc1c[nH]c2ccccc12)C(=O)N[C@@H](CCSC)C(=O)N[C@@H](CC(=O)O)C(=O)N[C@@H](Cc1ccccc1)C(N)=O [CCK8] | – | – | pKi for cloned rat NPFF1 receptor binding in COS-7 cells, MEAN (rat NPFF1 receptor; [2]): ≤ 5
6 | N=C(N)NCCC[C@@H](N)C(=O)O [D-arginine] | – | ≥ 10 µM | –
7 | N=C(N)NCCC[C@H](NC(=O)[C@H](Cc1ccccc1)NC(=O)[C@@H](N)Cc1ccccc1)C(=O)N[C@@H](Cc1ccccc1)C(N)=O [FFRF] (H-FFRF-NH2; N-terminus and C-terminus assumed) | 8.98 | – | pKi for cloned rat NPFF1 receptor binding in COS-7 cells, MEAN (rat NPFF1 receptor; [2]): 8
8 | C[C@@H](O)[C@H](NC(=O)[C@@H](N)Cc1ccccc1)C(=O)N[C@@H](CCCNC(=N)N)C(=O)N[C@@H](Cc1ccccc1)C(N)=O [FTRF] (H-FTRF-NH2; N-terminus and C-terminus assumed) | 8.16 | – | pKi for cloned rat NPFF1 receptor binding in COS-7 cells, MEAN (rat NPFF1 receptor; [2]): 7.87
9 | N=C(N)NCCC[C@H](N)C(=O)O [L-arginine] | – | ≥ 10 µM | –
10 | CSCC[C@H](NC(=O)[C@@H]1CCCN1)C(=O)N[C@@H](CCCNC(=N)N)C(=O)N[C@@H](Cc1ccccc1)C(N)=O [PMRFa] (H-PMRF-NH2; N-terminus assumed) | 9.37 | – | –
11 | CC(C)C[C@H](NC(=O)[C@H](Cc1ccccc1)NC(=O)Cc1ccc(O)cc1)C(=O)N[C@@H](Cc1ccccc1)C(=O)N[C@@H](CCC(N)=O)C(=O)N1CCC[C@H]1C(=O)N[C@@H](CCC(N)=O)C(=O)N[C@@H](CCCNC(=N)N)C(N)=O [desamino-nor-Y8Ra] (X1-FLFQPQR-NH2) | 7.51 | – | pKi for cloned rat NPFF1 receptor binding in COS-7 cells, MEAN (rat NPFF1 receptor; [2]): 7.27
12 | CNCCCN1c2ccccc2CCc2ccccc21 [desipramine] | – | ≥ 10 µM | –
13 | NCCc1ccc(O)c(O)c1 [dopamine] | – | ≥ 10 µM | –
14 | CCNC(C)Cc1cccc(C(F)(F)F)c1 (stereo not drawn) [fenfluramine] | – | ≥ 10 µM | –
15 | COc1ccc2c(c1)[nH]c1c(C)nccc12 [harmine] | – | – | Ki (rat NPFF1 receptor): ≥ 10 µM
16 | C[C@@H]1CN([C@H]2CC[C@](C#N)(c3ccc(F)cc3)CC2)CC[C@]1(C(=O)O)c1ccccc1 [levocabastine] | – | ≥ 10 µM | –
17 | CC(C)C[C@H](NC(=O)[C@H](CCCCN)NC(=O)[C@H](CCCN=C(N)N)NC(=O)[C@H](C)NC(=O)[C@H](CO)NC(=O)[C@H](CCCCN)NC(=O)[C@H](CCCN=C(N)N)NC(=O)[C@H](C)NC(=O)CNC(=O)[C@@H](NC(=O)[C@H](Cc1ccccc1)NC(=O)CNC(=O)CNC(=O)[C@@H](N)Cc1ccccc1)[C@@H](C)O)C(=O)N[C@@H](C)C(=O)N[C@@H](CC(N)=O)C(=O)N[C@@H](CCC(N)=O)C(=O)O [nociceptin] | – | – | Ki (rat NPFF1 receptor): ≥ 10 µM
18 | Cc1nc2sccn2c(=O)c1CCN1CCC(=C(c2ccc(F)cc2)c2ccc(F)cc2)CC1 [ritanserine] | – | ≥ 10 µM | –
19 | AGEGLSSPYWSLAAPQRF-NH2 [[Y^9]A18Fa] | *8.502 | – | inward current response (NPFF1 (SNORF2)): displayed activity
20 | Dynorphin A1-13 | *5.700 | – | –
21 | H-KHQYLRF-NH2 [AF-2, H-Lys-His-Gln-Tyr-Leu-Arg-Phe-NH2] | *7.965 | 0.0948 µM | –
22 | H-KNQFIRF-NH2 [AF-1, H2N-Lys-Asn-Gln-Phe-Ile-Arg-Phe-NH2] | *7.563 | 0.232 µM | –
23 | H-PDVDHVFLRF-NH2 [SchistFLRF] | 6.39 | – | –
24 | PDKDFIVNPSDLVLDNKAALRDYLRQINEYFAIIGRPRF-NH2 (C-terminus assumed) [Neuropeptide F] | *8.100 | – | pKi for cloned rat NPFF1 receptor binding in COS-7 cells, MEAN (rat NPFF1 receptor; [2]): 6.11
25 | TEPGLEEVGEIEQKQLQ [nocistatin] | – | – | pKi for cloned rat NPFF1 receptor binding in COS-7 cells, MEAN (rat NPFF1 receptor; [2]): ≤ 5
26 | YLFQPQRF-NH2 [Y8Fa] | *9.189 | – | inward current response (NPFF1 (SNORF2)): displayed activity
27 | melanin concentrating hormone | – | – | activation of oocytes injected with SNORF2 synthetic RNA (NPFF1 (SNORF2)): failed to activate
28 | orexin B | – | – | activation of oocytes injected with SNORF2 synthetic RNA (NPFF1 (SNORF2)): failed to activate
29 | B1 | – | – | activation of oocytes injected with SNORF2 synthetic RNA (NPFF1 (SNORF2)): failed to activate
